How the values were obtained:
[1] = test system: HCV Genotype 1B Replicon; assay: Replicon assay, genotype 1b subgenomic replicon (ET cell line), luciferase readout; type: cell-based; settings: Hepatitis C virus, 48 h, Table 3; luciferase activity after 48 hours
Protocol: (§1) Compounds were assayed for activity against HCV using the genotype 1a and 1b subgenomic replicon model systems. Stable cell lines bearing the genotype 1a and 1b replicons were used for screening of compounds. Both replicons are bicistonic and contain the firefly luciferase gene. The ET cell line is stably transfected with RNA transcripts harboring a I389luc-ubi-neo/NS3-3′/ET replicon with firefly luciferase-ubiquitin-neomycin phosphotransferase fusion protein and EMCV-IRES driven NS3-5B polyprotein containing the cell culture adaptive mutations (E1202G; T12801; K1846T) (Krieger at al, 2001 and unpublished). The genotype 1a replicon is a stable cell line licensed from Apath LLC, modified to contain the firefly luciferase gene. The cells were grown in DMEM, supplemented with 10% fetal calf serum, 2 mM Glutamine, Penicillin (100 IU/mL)/Streptomycin (100 μg/mL), 1× nonessential amino acids, and 250-500 μg/mL G418 (“Geneticin”). They were all available through Life Technologies (Bethesda, Md.). The cells were plated at 0.5×10^4 cells/well in 384 well plates containing compounds. The final concentration of compounds ranged between 0.03 μM to 50 μm and the final DMSO concentration of 0.5-1%.
(§2) Luciferase activity was measured 48 hours later by adding a Steady glo (Promega, Madison, Wis.). Percent inhibition of replication data was plotted relative to no compound control. Under the same condition, cytotoxicity of the compounds was determined using cell titer glo (Promega, Madison, Wis). IC50s were determined from a 10 point dose response curve using 3-4-fold serial dilution for each compound, which spans a concentration range >1000 fold. BioAssay determines the level of inhibition for each compound by normalizing cross-talk corrected plate values against the negative […] controls to determine Percent Inhibition:
(§3) These normalized values are exported to EC50 where they are plotted against the molar compound concentrations using the standard four parameter logistic equation: […]
(§4) Some EC50 measurements were repeated a second time and for both 1A and 1B genotypes after those reported in Table 2 for compounds 101-108 and the repeated data was reported in Table 3.

[2] = test system: HCV Genotype 1A Replicon; assay: Replicon assay, genotype 1a subgenomic replicon, luciferase readout; type: cell-based; settings: Hepatitis C virus, 48 h, Table 3; luciferase activity after 48 hours
Protocol: as §1, §2, §3, §4

Compound	EC50 [1] [µM]	EC50 [2] [µM]
CO[C@H]1CN(C(=O)c2nc3c(C(F)(F)F)cc(Br)cn3c2Cl)CC[C@@H]1N1CCOC1=O (racemic) [Compound 237, (±) trans-3-[1-{[6-bromo-3-chloro-8-(trifluoromethyl)imidazo[1,2-a]pyridin-2-yl]carbonyl}-3-(methyloxy)-4-piperidinyl]-1,3-oxazolidin-2-one]	≥ 5.01	≥ 5.01
CO[C@H]1CN(C(=O)c2nc3c(C(F)(F)F)cc(C4CC4)cn3c2Cl)CC[C@@H]1N1CCOC1=O (racemic) [Compound 238, (±) trans-3-[1-{[3-chloro-6-cyclopropyl-8-(trifluoromethyl)imidazo[1,2-a]pyridin-2-yl]carbonyl}-3-(methyloxy)-4-piperidinyl]-1,3-oxazolidin-2-one]	≥ 5.01	≥ 5.01
O=C(c1nc2c(C(F)(F)F)cc(C3CC3)cn2c1Cl)N1CC[C@@H](N2CCOC2=O)[C@H](O)C1 (single isomer, unassigned; enantiomer 1) [Compound 220, 3-((trans)-1-{[3-chloro-6-cyclopropyl-8-(trifluoromethyl)imidazo[1,2-a]pyridin-2-yl]carbonyl}-3-hydroxy-4-piperidinyl)-1,3-oxazolidin-2-one (Enantiomer 1)]	0.03	0.02
O=C1CN(C(=O)c2nc3c(C(F)(F)F)cc(C4CC4)cn3c2Cl)CC[C@@H]1N1CCOC1=O (stereo in doubt) [Compound 232, 1-{[3-chloro-6-cyclopropyl-8-(trifluoromethyl)imidazo[1,2-a]pyridin-2-yl]carbonyl}-4-(2-oxo-1,3-oxazolidin-3-yl)-3-piperidinone]	0.08	0.06
O=C(c1nc2c(C(F)(F)F)cccn2c1Cl)N1CCC(N2CCCC2=O)CC1 [Compound 109, 1-(1-{[3-chloro-8-(trifluoromethyl)imidazo[1,2-a]pyridin-2-yl]carbonyl}-4-piperidinyl)-2-pyrrolidinone]	28.2	38
O=C(c1nc2c(C(F)(F)F)cc(Cl)cn2c1Cl)N1CCC(N2CCCC2=O)CC1 [Compound 110, 1-(1-{[3,6-dichloro-8-(trifluoromethyl)imidazo[1,2-a]pyridin-2-yl]carbonyl}-4-piperidinyl)-2-pyrrolidinone]	0.8	1.74
O=C(c1nc2c(C(F)(F)F)cccn2c1Cl)N1CCC(N2CCOC2=O)CC1 [Compound 111, 3-(1-{[3-chloro-8-(trifluoromethyl)imidazo[1,2-a]pyridin-2-yl]carbonyl}-4-piperidinyl)-1,3-oxazolidin-2-one]	11.8	≥ 5.01
O=C(c1nc2c(C(F)(F)F)cc(Cl)cn2c1Cl)N1CCC(N2CCOC2=O)CC1 [Compound 112, 3-(1-{[3,6-dichloro-8-(trifluoromethyl)imidazo[1,2-a]pyridin-2-yl]carbonyl)-4-piperidinyl)-1,3-oxazolidin-2-one]	0.17	0.13
O=C(c1nc2c(C(F)(F)F)cc(-c3ccncc3)cn2c1Cl)N1CCC(N2CCOC2=O)CC1 [Compound 113]	9.66	0.74
O=C(c1nc2c(C(F)(F)F)cc(-c3cccc(F)c3)cn2c1Cl)N1CCC(N2CCOC2=O)CC1 [Compound 114]	0.31	0.03
O=C(c1nc2c(C(F)(F)F)cc(-c3ccc(F)cc3)cn2c1Cl)N1CCC(N2CCOC2=O)CC1 [Compound 115, 3-(1-{[3-chloro-6-(4-fluorophenyl)-8-(trifluoromethyl)imidazo[1,2-a]pyridin-2-yl]carbonyl}-4-piperidinyl)-1,3-oxazolidin-2-one]	3.69	0.06
COc1ccccc1-c1cc(C(F)(F)F)c2nc(C(=O)N3CCC(N4CCOC4=O)CC3)c(Cl)n2c1 [Compound 116]	7.41	0.36
COc1cccc(-c2cc(C(F)(F)F)c3nc(C(=O)N4CCC(N5CCOC5=O)CC4)c(Cl)n3c2)c1 [Compound 117]	2.54	0.47
COc1ccc(-c2cc(C(F)(F)F)c3nc(C(=O)N4CCC(N5CCOC5=O)CC4)c(Cl)n3c2)cc1 [Compound 118]	17.6	0.15
O=C(c1nc2c(C(F)(F)F)cc(-c3ccsc3)cn2c1Cl)N1CCC(N2CCOC2=O)CC1 [Compound 119]	0.05	0.01
O=C(c1nc2c(C(F)(F)F)cc(-c3cccc4cccnc34)cn2c1Cl)N1CCC(N2CCOC2=O)CC1 [Compound 120]	36	0.29

Compound	EC50 [1] [µM]	EC50 [2] [µM]
O=C(c1nc2c(C(F)(F)F)cc(-c3ccccc3O)cn2c1Cl)N1CCC(N2CCOC2=O)CC1 [Compound 121]	2.85	0.44
O=C(c1nc2c(C(F)(F)F)cc(-c3cccc(O)c3)cn2c1Cl)N1CCC(N2CCOC2=O)CC1 [Compound 122]	15.8	2.34
O=C(c1nc2c(C(F)(F)F)cc(-c3ccc(O)cc3)cn2c1Cl)N1CCC(N2CCOC2=O)CC1 [Compound 123]	0.38	0.03
Cn1cc(-c2cc(C(F)(F)F)c3nc(C(=O)N4CCC(N5CCOC5=O)CC4)c(Cl)n3c2)cn1 [Compound 124]	3.47	0.03
CCn1cc(-c2cc(C(F)(F)F)c3nc(C(=O)N4CCC(N5CCOC5=O)CC4)c(Cl)n3c2)cn1 [Compound 125]	13.3	0.09
CC(C)Cn1cc(-c2cc(C(F)(F)F)c3nc(C(=O)N4CCC(N5CCOC5=O)CC4)c(Cl)n3c2)cn1 [Compound 126, 3-(1-{[3-chloro-6-[1-(2-methylpropyl)-1H-pyrazol-4-yl]-8-(trifluoromethyl)imidazo[1,2-a]pyridin-2-yl]carbonyl}-4-piperidinyl)-1,3-oxazolidin-2-one]	≥ 50.1	13.7
O=C(c1nc2c(C(F)(F)F)cc(C3CCCC3)cn2c1Cl)N1CCC(N2CCOC2=O)CC1 [Compound 127, 3-(1-{[3-chloro-6-cyclopentyl-8-(trifluoromethyl)imidazo[1,2-a]pyridin-2-yl]carbonyl}-4-piperidinyl)-1,3-oxazolidin-2-one]	0.17	0.01
O=C(c1nc2c(C(F)(F)F)cc(C3CCC3)cn2c1Cl)N1CCC(N2CCOC2=O)CC1 [Compound 128, 3-(1-{[3-chloro-6-cyclobutyl-8-(trifluoromethyl)imidazo[1,2-a]pyridin-2-yl]carbonyl}-4-piperidinyl)-1,3-oxazolidin-2-one]	0.03	0.01
CCCc1cc(C(F)(F)F)c2nc(C(=O)N3CCC(N4CCOC4=O)CC3)c(Cl)n2c1 [Compound 129, 3-(1-{[3-chloro-6-propyl-8-(trifluoromethyl)imidazo[1,2-a]pyridin-2-yl]carbonyl}-4-piperidinyl)-1,3-oxazolidin-2-one]	0.12	0.02
CC(C)Cc1cc(C(F)(F)F)c2nc(C(=O)N3CCC(N4CCOC4=O)CC3)c(Cl)n2c1 [Compound 130, 3-(1-{[3-chloro-6-(2-methylpropyl)-8-(trifluoromethyl)imidazo[1,2-a]pyridin-2-yl]carbonyl}-4-piperidinyl)-1,3-oxazolidin-2-one]	0.05	0.02
CCCCc1cc(C(F)(F)F)c2nc(C(=O)N3CCC(N4CCOC4=O)CC3)c(Cl)n2c1 [Compound 131]	0.7	0.01
COc1cc(C(F)(F)F)c2nc(C(=O)N3CCC(N4CCOC4=O)CC3)c(Cl)n2c1 [Compound 132, 3-(1-{[3-chloro-6-(methyloxy)-8-(trifluoromethyl)imidazo[1,2-a]pyridin-2-yl]carbonyl}-4-piperidinyl)-1,3-oxazolidin-2-one]	0.21	0.13
Cc1ccc(-c2cc(C(F)(F)F)c3nc(C(=O)N4CCC(N5CCOC5=O)CC4)c(Cl)n3c2)o1 [Compound 133]	3.72	0.11
O=C(c1nc2c(C(F)(F)F)cc(C3CCCO3)cn2c1Cl)N1CCC(N2CCOC2=O)CC1 (stereo not shown) [Compound 134, 3-(1-{[3-chloro-6-(tetrahydro-2-furanyl)-8-(trifluoromethyl)imidazo[1,2-a]pyridin-2-yl]carbonyl}-4-piperidinyl)-1,3-oxazolidin-2-one]	2.19	0.32
CCOc1cc(C(F)(F)F)c2nc(C(=O)N3CCC(N4CCOC4=O)CC3)c(Cl)n2c1 [Compound 135, 3-(1-{[3-chloro-6-(ethyloxy)-8-(trifluoromethyl)imidazo[1,2-a]pyridin-2-yl]carbonyl}-4-piperidinyl)-1,3-oxazolidin-2-one]	0.22	0.07
O=C(c1nc2c(C(F)(F)F)cc(-c3cccnc3)cn2c1Cl)N1CCC(N2CCOC2=O)CC1 [Compound 136, 3-(1-{[3-chloro-6-(3-pyridinyl)-8-(trifluoromethyl)imidazo[1,2-a]pyridin-2-yl]carbonyl}-4-piperidinyl)-1,3-oxazolidin-2-one]	1.84	0.32

Source: patent US20100272680A1, “Piperidinyl Cyclic Amido Antiviral Agents” (priority 2009, published 2010)
